Results on 25 molecules are retold here after US12065436B2, “Cardiac sarcomere inhibitors” (Cytokinetics, Inc., priority 2018, dated 2024).

The structures appear in SMILES notation.

This assay concerns the target bovine cardiac myofibrils (full-length cardiac myosin ATPase in the native sarcomere) (Bos taurus (Bovine), UniProt Q9BE39). In words: Skinned bovine cardiac myofibril ATPase assay (PK/LDH-coupled). The assay is classed as biochemical. Particulars: Ca2+ activating to 75% of maximal rate; for CDMF75 IC15: concentration giving 15% inhibition; for IC50: read-out: CDMF75 IC50. As to the method: To evaluate the effect of compounds on the ATPase activity of full-length cardiac myosin in the context of the native sarcomere, skinned myofibril assays were performed. Bovine cardiac myofibrils were obtained by homogenizing bovine cardiac left ventricular tissue in the presence of a detergent such as triton X-100. Such treatment removes membranes and a majority of the soluble cytoplasmic proteins but leaves intact the cardiac sarcomeric acto-myosin apparatus. Myofibril preparations retain the ability to hydrolyze ATP in an Ca^2+ regulated manner. ATPase activities of such myofibril preparations in the presence and absence of compounds were assayed at Ca^2+ concentrations activating to a defined fraction of the maximal rate (i.e., 25%, 75%). Small molecule agents were assessed for their ability to inhibit the steady-state ATPase activity of bovine cardiac myofibrils using pyruvate kinase and lactate dehydrogenase (PK/LDH)-coupled enzyme system. This assay regenerates myosin-produced ADP into ATP by oxidizing NADH, producing an absorbance change at 340 nm. Prior to testing small molecule agents, the bovine cardiac myofibrils were assessed for their calcium responsiveness and the calcium concentration that achieves either a 50% (pCa50) or 75% (pCa75) activation of the myofibril system was chosen as the final condition for assessing the inhibitory activity of the small molecule agents. All enzymatic activity was measured in a buffered solution containing 12 mM PIPES (piperazine-N,N′-bis(2-ethanesulfonic acid), 2 mM magnesium chloride at pH 6.8 (PM 12 buffer). Final assay conditions were 1 mg/mL of bovine cardiac myofibrils, 4 U/mL pyruvate kinase, 6 U/mL lactate dehydrogenase, 50 μM ATP, 0.1 mg/mL BSA (bovine serum albumin), 10 ppm antifoam, 1 mM DTT, 0.5 mM NADH, 1.5 mM PEP, 0.6 mM EGTA, and an amount of CaCl2) sufficient to achieve either 50% or 75% activation of the myofibril ATPase activity.

One may read the IC50 as the concentration that inhibits the measured activity by half.

bovine cardiac myofibrils (full-length cardiac myosin ATPase in the native sarcomere), sequence (Q9BE39 whole entry): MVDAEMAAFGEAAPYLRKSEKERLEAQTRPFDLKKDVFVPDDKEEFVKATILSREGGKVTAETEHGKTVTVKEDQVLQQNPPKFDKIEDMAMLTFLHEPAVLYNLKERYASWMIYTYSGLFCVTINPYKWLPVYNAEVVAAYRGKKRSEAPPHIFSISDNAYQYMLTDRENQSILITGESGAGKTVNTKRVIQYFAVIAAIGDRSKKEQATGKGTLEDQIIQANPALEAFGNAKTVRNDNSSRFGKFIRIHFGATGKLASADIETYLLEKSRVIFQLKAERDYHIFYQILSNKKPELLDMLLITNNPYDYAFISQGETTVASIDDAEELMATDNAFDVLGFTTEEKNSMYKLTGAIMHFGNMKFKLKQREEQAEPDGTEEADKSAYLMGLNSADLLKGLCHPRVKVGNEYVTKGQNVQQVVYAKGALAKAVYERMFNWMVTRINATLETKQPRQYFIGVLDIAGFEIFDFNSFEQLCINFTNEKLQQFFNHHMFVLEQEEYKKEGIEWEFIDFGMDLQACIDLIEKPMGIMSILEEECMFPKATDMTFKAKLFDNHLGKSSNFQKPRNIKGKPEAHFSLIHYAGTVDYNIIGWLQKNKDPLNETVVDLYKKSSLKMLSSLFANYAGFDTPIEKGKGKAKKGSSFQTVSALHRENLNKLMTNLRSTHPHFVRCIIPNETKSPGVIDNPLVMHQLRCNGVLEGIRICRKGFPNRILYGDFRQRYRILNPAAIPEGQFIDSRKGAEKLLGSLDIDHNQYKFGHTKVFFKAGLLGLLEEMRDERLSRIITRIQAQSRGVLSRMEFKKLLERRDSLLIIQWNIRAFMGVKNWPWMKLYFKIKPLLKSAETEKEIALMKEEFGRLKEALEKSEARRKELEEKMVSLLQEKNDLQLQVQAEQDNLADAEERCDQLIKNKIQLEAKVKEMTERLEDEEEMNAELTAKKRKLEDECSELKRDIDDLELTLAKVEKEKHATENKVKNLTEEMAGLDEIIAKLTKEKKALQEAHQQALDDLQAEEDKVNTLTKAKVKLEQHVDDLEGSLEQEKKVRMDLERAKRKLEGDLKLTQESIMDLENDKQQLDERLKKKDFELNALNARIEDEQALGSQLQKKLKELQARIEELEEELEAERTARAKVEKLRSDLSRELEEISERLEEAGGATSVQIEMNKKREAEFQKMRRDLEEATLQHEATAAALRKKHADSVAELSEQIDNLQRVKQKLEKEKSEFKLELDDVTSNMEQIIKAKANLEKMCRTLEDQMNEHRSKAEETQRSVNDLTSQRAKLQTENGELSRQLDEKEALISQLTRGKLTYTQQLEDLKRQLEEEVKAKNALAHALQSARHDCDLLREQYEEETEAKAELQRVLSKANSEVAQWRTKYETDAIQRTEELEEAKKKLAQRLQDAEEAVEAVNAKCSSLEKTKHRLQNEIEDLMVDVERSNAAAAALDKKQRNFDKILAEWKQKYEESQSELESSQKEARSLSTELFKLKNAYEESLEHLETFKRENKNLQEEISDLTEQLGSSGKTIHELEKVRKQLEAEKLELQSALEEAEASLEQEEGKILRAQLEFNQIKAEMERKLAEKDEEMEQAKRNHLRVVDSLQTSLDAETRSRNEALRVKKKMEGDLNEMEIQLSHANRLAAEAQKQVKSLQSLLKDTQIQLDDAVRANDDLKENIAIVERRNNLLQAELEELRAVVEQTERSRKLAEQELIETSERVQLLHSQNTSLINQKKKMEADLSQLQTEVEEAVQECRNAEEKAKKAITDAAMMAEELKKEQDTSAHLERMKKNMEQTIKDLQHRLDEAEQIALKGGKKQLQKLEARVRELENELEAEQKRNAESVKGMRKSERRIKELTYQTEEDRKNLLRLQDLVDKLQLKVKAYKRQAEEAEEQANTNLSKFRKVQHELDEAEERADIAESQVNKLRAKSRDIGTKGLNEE
bovine cardiac myofibrils (full-length cardiac myosin ATPase in the native sarcomere), sequence (P85100 whole entry partner): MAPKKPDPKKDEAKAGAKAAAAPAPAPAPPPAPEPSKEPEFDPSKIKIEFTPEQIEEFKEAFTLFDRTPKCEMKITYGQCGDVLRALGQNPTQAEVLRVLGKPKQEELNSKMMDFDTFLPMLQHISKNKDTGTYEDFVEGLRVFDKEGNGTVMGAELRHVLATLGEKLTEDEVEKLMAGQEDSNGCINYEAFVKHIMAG
bovine cardiac myofibrils (full-length cardiac myosin ATPase in the native sarcomere), sequence (Q3SZE5 whole entry partner): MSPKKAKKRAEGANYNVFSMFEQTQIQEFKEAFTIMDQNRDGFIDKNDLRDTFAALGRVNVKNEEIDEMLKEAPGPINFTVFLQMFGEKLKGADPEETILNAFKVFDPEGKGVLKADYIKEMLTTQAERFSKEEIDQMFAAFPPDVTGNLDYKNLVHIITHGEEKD

With `CC(=O)N[C@@H]1COc2cc(-c3noc(C4CC4)n3)ccc21` [Compound 457, (S)-N-(6-(5-cyclopropyl-1,2,4-oxadiazol-3-yl)-2,3-dihydrobenzofuran-3-yl)acetamide], the “CDMF75 IC15” value was found to be 1.2 µM and the 50% inhibitory concentration (IC50) worked out at 5.3 µM.
For `CC(C)c1nc(-c2ccc3c(c2)CC[C@H]3NC(=O)c2cnn(CCO)c2)no1` [Compound 522, (R)-1-(2-hydroxyethyl)-N-(5-(5-isopropyl-1,2,4-oxadiazol-3-yl)-2,3-dihydro-1H-inden-1-yl)-1H-pyrazole-4-carboxamide], in that order: 2.0 µM and 9.1 µM.
In the case of `Cc1cc(C(=O)NC2CCc3cc(-c4nnn(C)n4)ccc32)ccn1` (centres unmarked) [Compound 148, 2-methyl-N-(5-(2-methyl-2H-tetrazol-5-yl)-2,3-dihydro-1H-inden-1-yl)isonicotinamide], the “CDMF75 IC15” value is 2.9 µM and the 50% inhibitory concentration (IC50) stood at 13.5 µM.
For `CCc1nc(-c2ccc3c(c2)CC[C@H]3NC(=O)c2cnn(C3CN(C(=O)NC)C3)c2)no1` [Compound 479, (R)-N-(5-(5-ethyl-1,2,4-oxadiazol-3-yl)-2,3-dihydro-1H-inden-1-yl)-1-(1-(methylcarbamoyl)azetidin-3-yl)-1H-pyrazole-4-carboxamide], in that order: 4.5 µM and 23.1 µM.
For `COCc1nc(-c2ccc3c(c2)OCC3NC(=O)c2ccnn2C)no1` (centres unmarked) [Compound 223, N-(6-(5-(methoxymethyl)-1,2,4-oxadiazol-3-yl)-2,3-dihydrobenzofuran-3-yl)-1-methyl-1H-pyrazole-5-carboxamide], in that order: 1.3 µM and 4.2 µM.
For `CCc1nc(-c2ccc3c(c2)CC[C@H]3NC(=O)N2CC[C@H](O)C2)no1` [Compound 723, (S)-N-((R)-5-(5-ethyl-1,2,4-oxadiazol-3-yl)-2,3-dihydro-1H-inden-1-yl)-3-hydroxypyrrolidine-1-carboxamide], in that order: 4.4 µM and 20.3 µM.
For the molecule `O=C(N[C@@H]1CCc2cc(-c3noc(C(F)F)n3)ccc21)C1CC1` [Compound 310, (R)-N-(5-(5-(difluoromethyl)-1,2,4-oxadiazol-3-yl)-2,3-dihydro-1H-inden-1-yl)cyclopropanecarboxamide], the “CDMF75 IC15” value amounted to 2.9 µM and the 50% inhibitory concentration (IC50) is 11.3 µM.
For `Cc1cc(C(=O)N[C@@H]2COc3cc(-c4noc(C5CC5)n4)ccc32)n(C)n1` [Compound 233, (S)-N-(6-(5-cyclopropyl-1,2,4-oxadiazol-3-yl)-2,3-dihydrobenzofuran-3-yl)-1,3-dimethyl-1H-pyrazole-5-carboxamide], in that order: 0.3 µM and 1.1 µM.
For `Cc1ncc(C(=O)N[C@@H]2CCc3cc(-c4noc(C5(C)CC5)n4)ccc32)o1` [Compound 465, (R)-2-methyl-N-(5-(5-(1-methylcyclopropyl)-1,2,4-oxadiazol-3-yl)-2,3-dihydro-1H-inden-1-yl)oxazole-5-carboxamide], in that order: 0.7 µM and 2.6 µM.
For `Cc1cc(C(=O)NC2CCc3cc(-c4noc(C)n4)ccc32)n(C)n1` (centres unmarked) [Compound 47, 1,3-dimethyl-N-(5-(5-methyl-1,2,4-oxadiazol-3-yl)-2,3-dihydro-1H-inden-1-yl)-1H-pyrazole-5-carboxamide], in that order: 1.4 µM and 5 µM.
`CCc1nc(-c2ccc3c(c2)CC[C@H]3NC(=O)c2ccn(CCOC)n2)no1` [Compound 602, (R)-N-(5-(5-ethyl-1,2,4-oxadiazol-3-yl)-2,3-dihydro-1H-inden-1-yl)-1-(2-methoxyethyl)-1H-pyrazole-3-carboxamide]: the “CDMF75 IC15” value is 4.1 µM and the IC50 was 16.9 µM.
For `Cc1ncc(C(=O)NC2COc3cc(-c4noc(C(F)F)n4)ccc32)o1` (centres unmarked) [Compound 205, N-(6-(5-(difluoromethyl)-1,2,4-oxadiazol-3-yl)-2,3-dihydrobenzofuran-3-yl)-2-methyloxazole-5-carboxamide], in that order: 1.1 µM and 4 µM.
For `Cc1c(C(=O)N[C@@H]2CCc3cc(-c4noc(C5CC5)n4)ccc32)cnn1C` [Compound 153, (R)-N-(5-(5-cyclopropyl-1,2,4-oxadiazol-3-yl)-2,3-dihydro-1H-inden-1-yl)-1,5-dimethyl-1H-pyrazole-4-carboxamide], in that order: 0.5 µM and 1.9 µM.
For `COCCn1cc(C(=O)N[C@@H]2CCc3cc(-c4noc(C5CC5)n4)ccc32)cn1` [Compound 510, (R)-N-(5-(5-cyclopropyl-1,2,4-oxadiazol-3-yl)-2,3-dihydro-1H-inden-1-yl)-1-(2-methoxyethyl)-1H-pyrazole-4-carboxamide], in that order: 1.9 µM and 7.9 µM.
With `COCc1nc(-c2ccc3c(c2)CC[C@H]3NC(=O)c2cc(C)nn2C)no1` [Compound 179, (R)-N-(5-(5-(methoxymethyl)-1,2,4-oxadiazol-3-yl)-2,3-dihydro-1H-inden-1-yl)-1,3-dimethyl-1H-pyrazole-5-carboxamide], the “CDMF75 IC15” value turned out to be 0.7 µM and the IC50 came out at 2.2 µM.
`Cc1c(C(=O)NC2COc3cc(-c4noc(C(F)F)n4)ccc32)cnn1C` (centres unmarked) [Compound 209, N-(6-(5-(difluoromethyl)-1,2,4-oxadiazol-3-yl)-2,3-dihydrobenzofuran-3-yl)-1,5-dimethyl-1H-pyrazole-4-carboxamide]: the “CDMF75 IC15” value was determined as 0.9 µM and the IC50 stood at 3.3 µM.
For `CCc1nc(-c2ccc3c(c2)CC[C@H]3NC(=O)c2cnn(CCCOC)c2C)no1` [Compound 598, (R)-N-(5-(5-ethyl-1,2,4-oxadiazol-3-yl)-2,3-dihydro-1H-inden-1-yl)-1-(3-methoxypropyl)-5-methyl-1H-pyrazole-4-carboxamide], in that order: 3.9 µM and 15.7 µM.
For `O=C(N[C@@H]1COc2cc(-c3noc(C(F)F)n3)ccc21)c1cccc(CO)c1` [Compound 701, (S)-N-(6-(5-(difluoromethyl)-1,2,4-oxadiazol-3-yl)-2,3-dihydrobenzofuran-3-yl)-3-(hydroxymethyl)benzamide], in that order: 0.3 µM and 1.1 µM.
Regarding `CCc1nn(C)cc1C(=O)NC1CCc2cc(-c3noc(C(F)F)n3)ccc21` (centres unmarked) [Compound 25, N-(5-(5-(difluoromethyl)-1,2,4-oxadiazol-3-yl)-2,3-dihydro-1H-inden-1-yl)-3-ethyl-1-methyl-1H-pyrazole-4-carboxamide], the “CDMF75 IC15” value was 3.9 µM and the half-maximal inhibitory concentration (IC50) was found to be 16.5 µM.
For `CCc1nc(-c2ccc3c(c2)CC[C@H]3NC(=O)c2cnn(C3CN(C(N)=O)C3)c2)no1` [Compound 481, (R)-1-(1-carbamoylazetidin-3-yl)-N-(5-(5-ethyl-1,2,4-oxadiazol-3-yl)-2,3-dihydro-1H-inden-1-yl)-1H-pyrazole-4-carboxamide], in that order: 1.9 µM and 7.8 µM.
For `CCc1nc(-c2ccc3c(c2)C[C@H](O)[C@H]3NC(=O)c2cnn(C)c2)no1` [Compound 495, N-((1S,2S)-5-(5-ethyl-1,2,4-oxadiazol-3-yl)-2-hydroxy-2,3-dihydro-1H-inden-1-yl)-1-methyl-1H-pyrazole-4-carboxamide], in that order: 10.0 µM and 39.2 µM.
Consider `Cc1ncc(C(=O)N[C@@H]2CCc3cc(-c4noc(C(F)F)n4)ccc32)s1` [Compound 676, (R)-N-(5-(5-(difluoromethyl)-1,2,4-oxadiazol-3-yl)-2,3-dihydro-1H-inden-1-yl)-2-methylthiazole-5-carboxamide], for which the “CDMF75 IC15” value worked out at 0.5 µM and the 50% inhibitory concentration (IC50) is 1.8 µM.
For `CCc1cc(-c2ccc3c(c2)CC[C@H]3NC(=O)c2cn[nH]c2C)no1` [Compound 431, (R)—N-(5-(5-ethylisoxazol-3-yl)-2,3-dihydro-1H-inden-1-yl)-5-methyl-1H-pyrazole-4-carboxamide], in that order: 0.3 µM and 0.9 µM.
For `Cc1nc(-c2ccc3c(c2)CCC3NC(=O)c2ocnc2C2CC2)no1` (centres unmarked) [Compound 52, 4-cyclopropyl-N-(5-(5-methyl-1,2,4-oxadiazol-3-yl)-2,3-dihydro-1H-inden-1-yl)oxazole-5-carboxamide], in that order: 1.6 µM and 4.9 µM.
For `COCc1nc(-c2ccc3c(c2)CC[C@H]3NC(=O)c2cn[nH]c2)no1` [Compound 490, (R)-N-(5-(5-(methoxymethyl)-1,2,4-oxadiazol-3-yl)-2,3-dihydro-1H-inden-1-yl)-1H-pyrazole-4-carboxamide], in that order: 1.6 µM and 6.9 µM.
